# Compound: CC[C@@H]1C(=O)N(C)c2cnc(Nc3ccc(C(=O)NC4CCN(C)CC4)cc3OC)nc2N1C1CCCC1 [BI-2536] + CS(=O)(=O)N1CCN(Cc2cc3nc(-c4cccc5[nH]ncc45)nc(N4CCOCC4)c3s2)CC1 [Pictilisib] (partner 1 µM)
# Experiment: relative viability (nuclei count vs DMSO), 5 days (fraction); higher = more cells survive
# Conditions: first compound 0.01 µM
# Method in brief: (§1)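 Cells from lung cancer lines were seeded into 1536-well plates and, one day later, dosed by pin tool. Treatments were either a single drug or a fixed dose of an anchor drug with five library-drug doses (not always all listed) in √10 steps. After 5 days, nuclei were stained in a one-step fixation (final 0.05% Triton X-100, 1% formaldehyde, 1 ug/ml Hoechst) and counted on 4× images, and relative viability is the treated-to-vehicle nuclei ratio, as the median of duplicate plates.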
row,Cell Line,relative viability
1,H3255,0.503
2,LOU-NH91,0.545
3,ChaGo-K-1,0.643
4,NCI-H2170,0.342
5,NCI-H2405,0.369
6,HOP-62,0.704
7,HCC-44,0.68
8,LU99A,0.308
9,BEN,0.574
10,HARA,0.372
11,HCC-78,0.26
12,NCI-H322M,0.303
13,LCLC-97TM1,0.182
14,A-427,0.776
15,NCI-H441,0.464
16,NCI-H1734,0.402
17,NCI-H460,0.276
18,NCI-H2347,0.471
19,NCI-H1395,0.622
20,201T,0.686
21,NCI-H1915,0.866
22,HCC-827,0.917
23,LXF-289,0.839
24,NCI-H23,0.424
25,NCI-H647,0.396
26,NCI-H1651,0.524

# Same assay, conditions: first compound 0.03162 µM
row,Cell Line,relative viability
1,NCI-H2087,0.872
2,H3255,0.503
3,LOU-NH91,0.516
4,ChaGo-K-1,0.535
5,NCI-H2170,0.295
6,NCI-H2405,0.391
7,HOP-62,0.965
8,HCC-44,0.769
9,LU99A,0.301
10,BEN,0.48
11,HARA,0.535
12,HCC-78,0.25
13,NCI-H322M,0.478
14,LCLC-97TM1,0.185
15,A-427,0.707
16,NCI-H441,0.211
17,NCI-H1734,0.387
18,NCI-H460,0.375
19,NCI-H2347,0.523
20,NCI-H1395,0.524
21,201T,0.618
22,NCI-H1915,0.899
23,HCC-827,1.02
24,LXF-289,0.759
25,NCI-H23,0.272
26,NCI-H647,0.376
27,NCI-H1651,0.372

# Same assay, conditions: first compound 0.1 µM
row,Cell Line,relative viability
1,NCI-H2087,0.381
2,H3255,0.305
3,LOU-NH91,0.474
4,ChaGo-K-1,0.243
5,NCI-H2170,0.192
6,NCI-H2405,0.265
7,HOP-62,0.159
8,HCC-44,0.257
9,LU99A,0.14
10,BEN,0.389
11,HARA,0.147
12,HCC-78,0.166
13,NCI-H322M,0.559
14,LCLC-97TM1,0.127
15,A-427,0.606
16,NCI-H441,0.138
17,NCI-H1734,0.347
18,NCI-H460,0.33
19,NCI-H2347,0.596
20,NCI-H1395,0.747
21,201T,0.586
22,NCI-H1915,0.264
23,HCC-827,0.976
24,LXF-289,0.126
25,NCI-H23,0.169
26,NCI-H647,0.129
27,NCI-H1651,0.488

# Same assay, conditions: first compound 0.3162 µM
row,Cell Line,relative viability
1,NCI-H2087,0.192
2,H3255,0.176
3,LOU-NH91,0.284
4,ChaGo-K-1,0.275
5,NCI-H2170,0.184
6,NCI-H2405,0.0965
7,HOP-62,0.0849
8,HCC-44,0.0696
9,LU99A,0.128
10,BEN,0.235
11,HARA,0.072
12,HCC-78,0.13
13,NCI-H322M,0.519
14,LCLC-97TM1,0.11
15,A-427,0.0766
16,NCI-H441,0.17
17,NCI-H1734,0.17
18,NCI-H460,0.0337
19,NCI-H2347,0.463
20,NCI-H1395,0.339
21,201T,0.253
22,NCI-H1915,0.074
23,HCC-827,0.533
24,LXF-289,0.0466
25,NCI-H23,0.139
26,NCI-H647,0.0762
27,NCI-H1651,0.0623

# Same assay, conditions: first compound 1 µM
row,Cell Line,relative viability
1,NCI-H2087,0.143
2,H3255,0.182
3,LOU-NH91,0.276
4,ChaGo-K-1,0.354
5,NCI-H2170,0.168
6,NCI-H2405,0.201
7,HOP-62,0.127
8,HCC-44,0.0951
9,LU99A,0.138
10,BEN,0.209
11,HARA,0.0745
12,HCC-78,0.0467
13,NCI-H322M,0.271
14,LCLC-97TM1,0.0962
15,A-427,0.122
16,NCI-H441,0.117
17,NCI-H1734,0.216
18,NCI-H460,0.0494
19,NCI-H2347,0.32
20,NCI-H1395,0.357
21,201T,0.308
22,NCI-H1915,0.0908
23,HCC-827,0.339
24,LXF-289,0.0562
25,NCI-H23,0.14
26,NCI-H647,0.0954
27,NCI-H1651,0.055

# Compound: CC[C@@H]1C(=O)N(C)c2cnc(Nc3ccc(C(=O)NC4CCN(C)CC4)cc3OC)nc2N1C1CCCC1 [BI-2536] + NC(=O)Nc1cc(-c2cccc(F)c2)sc1C(=O)N[C@H]1CCCNC1 [AZD7762] (partner 0.2 µM)
# Experiment: as above
# Conditions: first compound 0.01 µM
# Method in brief: as §1
row,Cell Line,relative viability
1,NCI-H2087,1.26
